From paper PMC5552351, “Bacteriological profiling of diphenylureas as a novel class of antibiotics against methicillin-resistant Staphylococcus aureus” (PLoS ONE, 2017) come the findings set out here.

SMILES strings stand for the structures.

In this assay the test system is VRS10. Description: microbe, parasite or virus in culture. It counts as cell-based, Staphylococcus aureus. The conditions noted are these: VRS10, compound at ½ × MIC. The method, then:
CAMHB was inoculated with strain VRS4 or strain VRS10 (5×10^5 CFU/mL), as described previously, with the following modifications. Aliquots ([…]) of the bacterial suspension were divided into micro-centrifuge tubes and compounds 1 or 2 (at ½ × MIC) were introduced into each tube. After 30 minutes of incubation at room temperature, samples from each tube were transferred to a new micro-centrifuge tube, prior to addition of vancomycin (at 128 μg/mL). Plates containing the test agents and bacteria were then incubated at 37 °C for 20–22 hours after which the MIC value was determined. A fold-reduction was calculated by comparing the MIC of vancomycin compared to the MIC of vancomycin given in combination with compounds 1 or 2 (at ½ × MIC).

Take `C/C(=N\NC(=N)N)c1ccc(NC(=O)Nc2ccc(OCCC(C)C)cc2)cc1` [compound 1]: the “Fold re-sensitization of VRSA to vancomycin” value is reported as 3-fold.
